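Briefly, cells in 96-well plates were exposed to five compound concentrations for 48 h, and endpoints were estimated by linear interpolation. GI50 marks 50% less growth. TGI is the concentration that stops growth completely.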 Bounds are passed on as bounds.

What all share (assay): NCI-60 cell line screen, 48 h
Experiment [1] concerns HL-60(TB) leukemia.
For experiment [2], the system named is SW-620 colon.
In experiment [3] the test system is OVCAR-3 ovarian.
The subject of experiment [4] is RXF 393 renal.
In experiment [5] the test system is 786-0 renal.
The test system of experiment [6] is SF-539 CNS.
Experiment [7] deals with SN12C renal.
Experiment [8] deals with LOX IMVI melanoma.
Experiment [9] concerns NCI-H522 lung.
In experiment [10] the test system is UACC-62 melanoma.

In the case of `CC(=O)N1[C@H](C(=O)O)CS[C@H]1c1ccc(F)cc1`, the TGI in experiment [1], in experiment [2], in experiment [3], in experiment [4], in experiment [5] and in [6] was greater than 100 µM in each case. For the same compound, the TGI in experiment [7] and in [8] was greater than 100 µM each time.
On to `COc1ccc(-n2c(=S)sc3c(Cl)nc(C)nc32)c(OC)c1`, for which the GI50 in experiment [1] is 1.43 µM; in experiment [2], 2.57 µM; in experiment [3] it was 1.8 µM; in experiment [9], 1.84 µM; in experiment [4] it was 2 µM; in [10], 2.06 µM. In addition, the GI50 is 4.42 µM in experiment [5], 2.07 µM in experiment [6], 2.85 µM in experiment [7] and 1.71 µM in experiment [8]. Moreover, the TGI was found to be 5.83 µM in [1]; 5.44 µM in experiment [2]; 3.26 µM in experiment [3]; 3.89 µM in experiment [9]; 4.07 µM in [4]; 4.69 µM in experiment [10]. Further, the TGI in experiment [5] stood at 20.4 µM; in experiment [6], 4.55 µM; in [7], 9.14 µM; in [8], 3.19 µM.
Turning to `CCC[CH2][Sn-]([CH2]CCC)([CH2]CCC)[O]C(=O)C(C)C`, the GI50 in experiment [1] was 0.111 µM; in experiment [2], 0.124 µM; in experiment [3] it was 0.114 µM; in experiment [4] it was 0.107 µM; in experiment [10], 0.2 µM; in [5], 0.109 µM. For the same compound, the figures for the GI50 in experiment [6], in experiment [7] and in experiment [8] were 0.157 µM, 0.158 µM and 0.0816 µM, respectively. Also, the TGI in experiment [1] amounted to 0.304 µM; in experiment [2], 0.272 µM; in [3], 0.238 µM; in experiment [4] it was 0.237 µM; in experiment [10], 0.424 µM; in [5], 0.228 µM. Besides, the TGI stood at 0.296 µM in experiment [6], 0.318 µM in [7] and 0.215 µM in experiment [8].
Consider `CC(=O)Nc1ccc(C2CC(c3ccc([N+](=O)[O-])cc3)=Nc3ccccc3S2)cc1` (stereo not given), for which the TGI in experiment [1] stood at 49.7 µM; in experiment [2], 32.3 µM; in experiment [3], 67.4 µM; in experiment [4], 34.9 µM; in experiment [10], 32.1 µM; in experiment [5] it was 31.1 µM. Also, the TGI in [6] stood at 33.5 µM; in [7], 33 µM; in experiment [8] it was 32.3 µM.
Take `CCN(CC)C(=S)SSC(C)C`: the GI50 is 5.63 µM in [1]; 3.01 µM in experiment [2]; 0.0295 µM in experiment [9]; 16.5 µM in [4]; 16.7 µM in [10]; 17.3 µM in experiment [5]. The GI50 in [6] is 18.4 µM; in [7] it was 14.3 µM; in experiment [8] it was 4.67 µM. In addition, the TGI in experiment [1] came to 29.8 µM; in [2] it was 14 µM; in experiment [9], 1.34 µM; in experiment [4], 31.5 µM; in experiment [10] it was 35.4 µM; in experiment [5], 31.7 µM. Also, the TGI in experiment [6] is 42.9 µM; in experiment [7], 30.5 µM; in experiment [8], 24.1 µM.
With `CCCC(=O)O[C@]1(C)CC[C@@H]2[C@H]3[C@@H]1[C@@H]1C[C@@](C)(O)[C@H](OC)CC[C@](C)(OC(=O)[C@@H]2C)[C@H]3O1`, the GI50 in experiment [1] is 21.2 µM; in [2] it was 34.4 µM; in experiment [3], 16.9 µM; in experiment [9], 32 µM; in experiment [4], 23.2 µM; in [5], greater than 100 µM. The figures for the GI50 in [6], in [7] and in experiment [8] were 71.7 µM, 24.8 µM and 66.9 µM, respectively. Further, the TGI in experiment [1] was 45.1 µM; in experiment [2], greater than 100 µM; in [3], 40 µM; in experiment [9], greater than 100 µM; in experiment [4] it was 72.9 µM; in experiment [5] it was greater than 100 µM. Also, the values for the TGI in experiment [6], in experiment [7] and in [8] were greater than 100 µM, 59.5 µM and greater than 100 µM, respectively.
Consider `N/N=C(/Cc1ccccc1)NNO`, for which the TGI in experiment [1], in experiment [2], in experiment [3], in experiment [4], in [10] and in experiment [5] was greater than 100 µM each time. Also, the TGI in [6] and in [8] was greater than 100 µM throughout.
As to `Cn1c(=O)oc2cc(C3CCC(=O)N3Cc3csc(-c4ccccc4)n3)ccc21` (stereo not given), the TGI in experiment [1], in experiment [2], in [9], in experiment [4], in experiment [10] and in experiment [5] was greater than 100 µM throughout. The TGI in experiment [6], in experiment [7] and in experiment [8] was greater than 100 µM in each case.
Take `O=C1c2cccc3cccc(c23)C(=O)N1CCCCCN1CCN(CCN=c2cc3n(-c4ccc(Cl)cc4)c4ccccc4nc-3cc2Nc2ccc(Cl)cc2)CC1`: the GI50 in experiment [1] is 6.91 µM; in [2] it was 15.3 µM; in [3], 1.07 µM; in [4] it was 11.2 µM; in [10] it was 7.5 µM; in experiment [5], 9.6 µM. The GI50 in experiment [6] is 12.1 µM; in [7], 10.4 µM; in experiment [8], 9.83 µM. Also, the TGI is 21.3 µM in experiment [1]; greater than 50 µM in experiment [2]; 3.4 µM in experiment [3]; greater than 50 µM in experiment [4]; 20.5 µM in [10]; 30.7 µM in [5]. Moreover, the results for the TGI in experiment [6], in experiment [7] and in experiment [8] were 31 µM, 26.4 µM and 29.8 µM, respectively.
Consider `CCOc1c(Br)cc(Br)cc1C=C(C#N)C#N`, for which the TGI in [1] is 1.19 µM; in [2], greater than 10 µM; in experiment [3], greater than 10 µM; in [4] it was greater than 10 µM; in [10], greater than 10 µM; in [5], greater than 10 µM. Besides, the TGI in experiment [6] is 6.21 µM; in experiment [7] it was greater than 10 µM; in [8] it was 7.36 µM.
